We go through 10 compounds from patent US10815205B2, “Amide-substituted phenyltriazole derivatives and uses thereof” (BAYER PHARMA AKTIENGESELLSCHAFT, priority 2016, dated 2020).

Experiment [1] has as its target T1, human V1a receptor (Homo sapiens, UniProt P37288).
T1 construct: expressed in transfected cells; host or cells: CHO K1 (ATCC), also stably transfected with a modified aequorin
Kind of experiment: Cellular in vitro assay for vasopressin receptor activity, V1a receptor cell line (aequorin luminescence). The experiment is classed as cell-based. The conditions noted are these: Table 1A; for pIC50: CHO cell line transfected with human V1a receptor, [Arg8]-vasopressin at EC50, read-out: IC50 hV1a; for ratio IC50 hV2/hV1a: selectivity V1a over V2. As to the method: (§1) B-1. Cellular In Vitro Assay for Determining Vasopressin Receptor Activity
(§2) The identification of agonists and antagonists of the V1a and V2 vasopressin receptors from humans, rats and dogs as well as the quantification of the activity of the compounds of the invention is carried out using recombinant cell lines. These cell lines originally derive from a hamster's ovary epithelial cell (Chinese Hamster Ovary, CHO K1, ATCC: American Type Culture Collection, Manassas, Va. 20108, USA). The test cell lines constitutively express the human, rat or dog V1a or V2 receptors. In case of the Gαq-coupled V1a receptors, cells are also stably transfected with a modified form of the calcium-sensitive photoproteins aequorin (human and rat V1a) or obe-lin (dog V1a), which, after reconstitution with the cofactor coelenterazine, emit light when there are increases in free calcium concentrations [Rizzuto R, Simpson A W, Brini M, Pozzan T, Nature 358, 325-327 (1992); Illarionov B A, Bondar V S, Illarionova V A, Vysotski E S, Gene 153 (2), 273-274 (1995)]. The resulting vasopressin receptor cells react to stimulation of the recombinantly expressed V1a receptors by intracellular release of calcium ions, which can be quantified by the resulting photoprotein luminescence. The Gs-coupled V2 receptors are stably transfected into cell lines expressing the gene for firefly luciferase under control of a CRE-responsible promoter. Activation of V2 receptors induces the activation of the CRE-responsive promoter via cAMP increase, thereby inducing the expression of firefly luciferase. The light emitted by photoproteins of V1a cell lines as well as the light emitted by firefly luciferase of V2 cell lines corresponds to the activation or inhibition of the respective vasopressin receptor. The bioluminescence of the cell lines is detected using a suitable luminometer [Milligan G, Marshall F, Rees S, Trends in Pharmacological Sciences 17, 235-237 (1996)].
Vasopressin V1a Receptor Cell Lines:
On the day before the assay, the cells are plated out in culture medium (DMEM/F12, 2% FCS, 2 mM glutamine, 10 mM HEPES, 5 μg/ml coelenterazine) in 384-well microtiter plates and kept in a cell incubator (96% humidity, 5% v/v CO2, 37° C.). On the day of the assay, test compounds in various concentrations are placed for 10 minutes in the wells of the microtiter plate before the agonist [Arg^8]-vasopressin at EC50 concentration is added. The resulting light signal is measured immediately in a luminometer.

The target in experiment [2] is T2, human V2 receptor (Homo sapiens, UniProt P30518).
T2 construct: expressed in transfected cells; host or cells: CHO K1 (ATCC) expressing firefly luciferase under a CRE-responsive promoter
T2 sequence (P30518 whole entry): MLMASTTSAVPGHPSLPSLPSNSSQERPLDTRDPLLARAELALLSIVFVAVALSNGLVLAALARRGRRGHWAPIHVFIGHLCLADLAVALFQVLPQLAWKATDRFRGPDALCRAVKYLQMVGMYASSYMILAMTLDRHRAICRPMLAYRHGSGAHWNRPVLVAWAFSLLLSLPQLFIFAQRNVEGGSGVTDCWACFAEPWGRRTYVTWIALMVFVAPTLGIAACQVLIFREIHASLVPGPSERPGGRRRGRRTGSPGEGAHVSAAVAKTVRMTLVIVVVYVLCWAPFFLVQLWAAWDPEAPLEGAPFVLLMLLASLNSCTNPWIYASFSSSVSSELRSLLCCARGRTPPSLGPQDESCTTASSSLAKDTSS
Kind of experiment: Cellular in vitro assay for vasopressin receptor activity, V2 receptor cell line (CRE-luciferase). The format is cell-based. The conditions noted are these: Table 1A; CHO cell line transfected with human V2 receptor; [Arg8]-vasopressin at EC50; read-out: IC50 hV2. The procedure: as §1, §2
Vasopressin V2 Receptor Cell Lines:
On the day before the assay, the cells are plated out in culture medium (DMEM/F12, 2% FCS, 2 mM glutamine, 10 mM HEPES) in 384-well microtiter plates and kept in a cell incubator (96% humidity, 5% v/v CO2, 37° C.). On the day of the assay, test compounds in various concentrations and the agonist [Arg^8]-vasopressin at EC50 concentration are added together to the wells, and plates are incubated for 3 hours in a cell incubator. Upon addition of the cell lysis reagent Triton™ and the substrate luciferin, luminescence of firefly luciferase is measured in a luminometer.

Structures are written as SMILES. pIC50: −log10 of the molar value.

T1 sequence (P37288 whole entry): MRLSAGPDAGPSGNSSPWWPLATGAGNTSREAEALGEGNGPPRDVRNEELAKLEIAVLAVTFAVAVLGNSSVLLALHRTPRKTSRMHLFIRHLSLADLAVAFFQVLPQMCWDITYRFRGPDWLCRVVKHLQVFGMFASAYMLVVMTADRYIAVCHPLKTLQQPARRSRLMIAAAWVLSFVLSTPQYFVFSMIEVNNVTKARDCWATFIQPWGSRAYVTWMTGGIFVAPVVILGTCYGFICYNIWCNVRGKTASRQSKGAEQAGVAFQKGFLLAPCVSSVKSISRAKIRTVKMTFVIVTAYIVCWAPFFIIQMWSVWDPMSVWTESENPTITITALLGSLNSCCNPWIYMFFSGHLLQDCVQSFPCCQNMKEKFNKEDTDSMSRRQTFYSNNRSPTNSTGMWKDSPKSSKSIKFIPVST

On to `NC(=O)c1nc(Cn2nc(-c3ccc(Cl)cc3)n(C[C@H](O)C(F)(F)F)c2=O)nn1-c1ccccc1C(F)(F)F` [Example 1, 3-({3-(4-Chlorophenyl)-5-oxo-4-[(2S)-3,3,3-trifluoro-2-hydroxypropyl]-4,5-dihydro-H-1,2,4-triazol-1-yl}methyl)-1-[2-(trifluoromethyl)phenyl]-1H-1,2,4-triazole-5-carboxamide], for which, in experiment [1], the negative logarithm of the IC50 (pIC50) is 9.24 and the “ratio IC50 hV2/hV1a” value stood at 41.4. Besides, in experiment [2], the negative logarithm of the IC50 (pIC50) is 7.62.

On to `CCOc1ccccc1-n1nc(Cn2nc(-c3ccc(Cl)cc3)n(C[C@H](O)C(F)(F)F)c2=O)nc1C(N)=O` [Example 5, 3-({3-(4-Chlorophenyl)-5-oxo-4-[(2S)-3,3,3-trifluoro-2-hydroxypropyl]-4,5-dihydro-1H-1,2,4-triazol-1-yl}methyl)-1-(2-ethoxyphenyl)-1H-1,2,4-triazole-5-carboxamide], for which, in experiment [1], the pIC50 was 8.80 and the “ratio IC50 hV2/hV1a” value came out at 24.1. Further, in experiment [2], the pIC50 is 7.41.

Take `NC(=O)c1nc(Cn2nc(-c3ccc(Cl)cc3)n(C[C@@H](O)C(F)(F)F)c2=O)nn1-c1ccccc1OC(F)(F)F` [Example 4, 3-({3-(4-Chlorophenyl)-5-oxo-4-[(2R)-3,3,3-trifluoro-2-hydroxypropyl]-4,5-dihydro-1H-1,2,4-triazol-1-yl}methyl)-1-[2-(trifluoromethoxy)phenyl]-1H-1,2,4-triazole-5-carboxamide]: in experiment [1], the negative-log IC50 (pIC50) was 8.02 and the “ratio IC50 hV2/hV1a” value was found to be 68.9. In experiment [2], the negative logarithm of the IC50 (pIC50) is 6.18.

As for `NC(=O)c1nc(Cn2nc(-c3ccc(Cl)cc3)n(CC(=O)C(F)(F)F)c2=O)nn1-c1ccccc1C(F)(F)F` [Example 8, 3-{[3-(4-chlorophenyl)-5-oxo-4-(3,3,3-trifluoro-2-oxopropyl)-4,5-dihydro-H-1,2,4-triazol-1-yl]methyl}-1-[2-(trifluoromethyl)phenyl]-1H-1,2,4-triazole-5-carboxamide (ketone form) or 3-{[3-(4-chlorophenyl)-5-oxo-4-(3,3,3-trifluoro-2,2-dihydroxypropyl)-4,5-dihydro-H-1,2,4-triazol-1-yl]methyl}-1-[2-(trifluoromethyl)phenyl]-1H-1,2,4-triazole-5-carboxamide (hydrate form)], the negative logarithm of the IC50 (pIC50) in experiment [1] was 8.73; in experiment [2] it was 7.47. The “ratio IC50 hV2/hV1a” value in experiment [1] is 18.2.

Take `CNC(=O)c1ccccc1-n1nc(Cn2nc(-c3ccc(Cl)cc3)n(C[C@H](O)C(F)(F)F)c2=O)nc1C(N)=O` [Example 6, 3-({3-(4-Chlorophenyl)-5-oxo-4-[(2S)-3,3,3-trifluoro-2-hydroxypropyl]-4,5-dihydro-1H-1,2,4-triazol-1-yl}methyl)-1-[2-(methylcarbamoyl)phenyl]-1H-1,2,4-triazole-5-carboxamide]: the pIC50 was 7.89 in experiment [1] and 6.01 in experiment [2]. The “ratio IC50 hV2/hV1a” value in experiment [1] came out at 75.6.

On to `NC(=O)c1nc(Cn2nc(-c3ccc(Cl)cc3)n(C[C@@H](O)C(F)(F)F)c2=O)nn1-c1ccccc1C(F)(F)F` [Example 2, 3-({3-(4-Chlorophenyl)-5-oxo-4-[(2R)-3,3,3-trifluoro-2-hydroxypropyl]-4,5-dihydro-1H-1,2,4-triazol-1-yl}methyl)-1-[2-(trifluoromethyl)phenyl]-1H-1,2,4-triazole-5-carboxamide], for which the pIC50 in experiment [1] is 8.63; in experiment [2], 6.76. Besides, in experiment [1], the “ratio IC50 hV2/hV1a” value was found to be 74.5.

`CCOc1ccccc1-n1nc(Cn2nc(-c3ccc(Cl)cc3)n(C[C@@H](O)C(F)(F)F)c2=O)nc1C(N)=O` [Example 10, 3-({3-(4-Chlorophenyl)-5-oxo-4-[(2R)-3,3,3-trifluoro-2-hydroxypropyl]-4,5-dihydro-H-1,2,4-triazol-1-yl}methyl)-1-(2-ethoxyphenyl)-1H-1,2,4-triazole-5-carboxamide]: the negative-log IC50 (pIC50) in experiment [1] is 8.09; in experiment [2], 6.05. The “ratio IC50 hV2/hV1a” value in experiment [1] came to 108.5.

As for `CS(=O)(=O)c1ccccc1-n1nc(Cn2nc(-c3ccc(Cl)cc3)n(C[C@H](O)C(F)(F)F)c2=O)nc1C(N)=O` [Example 7, 3-({3-(4-Chlorophenyl)-5-oxo-4-[(2S)-3,3,3-trifluoro-2-hydroxypropyl]-4,5-dihydro-1H-1,2,4-triazol-1-yl}methyl)-1-[2-(methylsulfonyl)phenyl]-1H-1,2,4-triazole-5-carboxamide], the pIC50 in experiment [1] was 7.76; in experiment [2], 6.15. In addition, in experiment [1], the “ratio IC50 hV2/hV1a” value was determined as 40.7.

For the compound `NC(=O)c1nc(Cn2nc(-c3ccc(Cl)cc3)n(C[C@H](O)C(F)(F)F)c2=O)nn1-c1ccccc1OC(F)(F)F` [Example 3, 3-({3-(4-Chlorophenyl)-5-oxo-4-[(2S)-3,3,3-trifluoro-2-hydroxypropyl]-4,5-dihydro-1H-1,2,4-triazol-1-yl}methyl)-1-[2-(trifluoromethoxy)phenyl]-1H-1,2,4-triazole-5-carboxamide], in experiment [1], the negative-log IC50 (pIC50) is 8.90 and the “ratio IC50 hV2/hV1a” value stood at 60.4. In experiment [2], the pIC50 is 7.12.

Take `NC(=O)c1nc(Cn2nc(-c3ccc(Cl)cc3)n(CC(=O)C(F)(F)F)c2=O)nn1-c1ccccc1OC(F)(F)F` [Example 9, 3-{[3-(4-chlorophenyl)-5-oxo-4-(3,3,3-trifluoro-2-oxopropyl)-4,5-dihydro-H-1,2,4-triazol-1-yl]methyl}-1-[2-(trifluoromethoxy)phenyl]-1H-1,2,4-triazole-5-carboxamide (ketone form) or 3-{[3-(4-chlorophenyl)-5-oxo-4-(3,3,3-trifluoro-2,2-dihydroxypropyl)-4,5-dihydro-1H-1,2,4-triazol-1-yl]methyl}-1-[2-(trifluoromethoxy)phenyl]-1H-1,2,4-triazole-5-carboxamide (hydrate form)]: in experiment [1], the negative-log IC50 (pIC50) was 8.05 and the “ratio IC50 hV2/hV1a” value is 11.9. Further, the pIC50 in experiment [2] is 6.97.

What is called pIC50 is the negative decadic logarithm of the IC50, by convention in mol/L.
